≈ marks a conversion by molar mass, not a printed value. Where “and” joins values, the source holds several entries; their conditions need not be identical. Equal entries are not always repeated. Where two headings read alike, the source gives them in different places.
Assays:
[1] = target: T1, Acetylcholinesterase from Electrophorus electricus (electric eel) (AChE) (Electrophorus electricus, UniProt O42275); type: biochemical; settings: 36.6 °C; for % Inhibition (inhibitory activity, ITC): AChE 1 μmol/L in cell, syringe hydroxybenzoic acid 0.5 mmol/L and ACh 1 mmol/L, mean ± SD of three; for IC50 (ITC): ligand amount per AChE monomer that inhibits ACh hydrolysis by 50%
[2] = target: T1, Acetylcholinesterase from Electrophorus electricus (electric eel) (AChE); assay: ITC: titration of AChE with ligand, complexation (association) constant; type: binding; settings: for Ka × 10^3 (binding/association constant, ITC): 36.6 °C, one binding site model; for Ka (association constant, ITC): restated in L/mol
AChE [3] = settings: colorimetric method; cited from earlier work
AChE [4] = settings: inhibitory activity for AChE; cited from earlier work
AChE [5] = test system: AChE; set-up: method as in PMID 18274286; settings: AChE inhibition; cited from earlier work
AChE [6] = test system: AChE; set-up: method as in PMID 23229229; settings: AChE inhibition; cited from earlier work
AChE [7] = settings: anti-AChE activity; cited from earlier work
AChE [8] = settings: mice administered with streptozotocin; dose-dependent; cited from earlier work
AChE [9] = settings: AChE inhibition; literature result, no reference given; cited from earlier work

T1 sequence (O42275 24-633): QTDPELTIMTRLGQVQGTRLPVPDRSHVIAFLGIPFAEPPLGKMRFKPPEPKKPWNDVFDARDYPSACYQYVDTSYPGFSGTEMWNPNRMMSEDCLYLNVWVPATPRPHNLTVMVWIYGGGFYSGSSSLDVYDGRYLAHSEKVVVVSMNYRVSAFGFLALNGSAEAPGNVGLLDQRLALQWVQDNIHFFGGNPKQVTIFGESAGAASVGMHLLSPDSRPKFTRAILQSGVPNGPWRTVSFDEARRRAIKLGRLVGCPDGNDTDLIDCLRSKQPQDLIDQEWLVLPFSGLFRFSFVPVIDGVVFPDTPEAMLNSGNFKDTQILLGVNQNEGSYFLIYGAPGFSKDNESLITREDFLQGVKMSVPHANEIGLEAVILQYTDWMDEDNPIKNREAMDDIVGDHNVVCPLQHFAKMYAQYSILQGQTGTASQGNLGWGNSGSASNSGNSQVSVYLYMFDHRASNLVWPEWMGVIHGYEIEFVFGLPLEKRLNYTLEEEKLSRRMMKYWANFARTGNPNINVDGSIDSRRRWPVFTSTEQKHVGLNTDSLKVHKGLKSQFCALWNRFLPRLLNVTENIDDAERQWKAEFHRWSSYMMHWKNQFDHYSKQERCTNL

| SMILES | % Inhibition (inhibitory activity, ITC) [1] | IC50 (ITC) [1] | Kd [2] | Ka × 10^3 (binding/association constant, ITC) [2] | Ellman’s Assay (inhibitory activity as eserine equivalent) (AChE [3]) | other results |
| --- | --- | --- | --- | --- | --- | --- |
| O=C(O)c1cccc(O)c1 [3-hydroxybenzoic acid] | 74.80 ± 8.63% | 6.68 μmol/μmol AChE and 6.68 ± 0.77 μmol/μmol AChE | 15.6 µM | 64.10 × 10^3 L/mol | 2.6 ± 0.1 nmol/L of Eserine | – |
| O=C(O)c1ccc(O)cc1 [4-hydroxybenzoic acid] | – | – | – | – | 3.7 ± 0.3 nmol/L of Eserine | – |
| O=C(O)Cc1ccc(O)cc1 [4-hydroxyphenylacetic acid] | 80.20 ± 8.04% | 6.24 μmol/μmol AChE and 6.24 ± 0.63 μmol/μmol AChE | 15.1 µM | 66.23 × 10^3 L/mol | – | – |
| O=C(O)C(=O)Cc1ccc(O)cc1 [4-hydroxyphenylpyruvic acid] | 84.93 ± 5.82% | 5.89 μmol/μmol AChE and 5.89 ± 0.40 μmol/μmol AChE | 3.95 µM | 253 × 10^3 L/mol | 23.6 ± 1.5 nmol/L of Eserine | Ka (association constant, ITC) [2]: 253000 L/mol |
| CCOC(=O)c1ccc(O)cc1 [ethyl 4-hydroxybenzoate] | 15.93 ± 0.75% | 31.38 ± 1.48 μmol/μmol AChE | 48.7 µM | 20.53 × 10^3 L/mol | 28.1 ± 0.1 nmol/L of Eserine | IC50 (ITC) ([1]; listed as ethylhydroxybenzoate): 31.38 μmol/μmol AChE |
| CCOC(=O)c1ccc(O)c(OC)c1 [ethyl vanillate] | 14.60 ± 2.33% | 34.19 μmol/μmol AChE and 34.19 ± 5.46 μmol/μmol AChE | 25.8 µM | 38.76 × 10^3 L/mol | 33.5 ± 2.5 nmol/L of Eserine | – |
| O=C(O)c1cc(O)c(O)c(O)c1 [gallic acid] | 53.70 ± 2.86% | 9.32 μmol/μmol AChE and 9.32 ± 0.50 μmol/μmol AChE | 19.4 µM | 51.55 × 10^3 L/mol | 3.8 ± 0.1 nmol/L of Eserine | IC50 (AChE [5]): 5.89 µM |
| O=C(O)c1cc(O)ccc1O [gentisic acid] | 62.38 ± 6.39% | 8.02 μmol/μmol AChE and 8.02 ± 0.82 μmol/μmol AChE | 13 µM | 76.92 × 10^3 L/mol | 68.6 ± 0.7 nmol/L of Eserine | – |
| O=C(O)Cc1cc(O)ccc1O [homogentisic acid] | 68.78 ± 0.88% | 7.16 μmol/μmol AChE and 7.16 ± 0.09 μmol/μmol AChE | 8.55 µM | 116.92 × 10^3 L/mol | 9.6 ± 2.4 nmol/L of Eserine | – |
| COc1cc(CC(=O)O)ccc1O [homovanillic acid] | 77.50 ± 2.59% | 6.45 μmol/μmol AChE and 6.45 ± 0.22 μmol/μmol AChE | 7.35 µM | 136.05 × 10^3 L/mol | 21.8 ± 0.4 nmol/L of Eserine | – |
| COC(=O)c1cc(OC)c(O)c(OC)c1 [methyl syringate] | 90.93 ± 7.13% | 5.50 μmol/μmol AChE and 5.50 ± 0.43 μmol/μmol AChE | 6.48 µM | 154.32 × 10^3 L/mol | 9.1 ±1.6 nmol/L of Eserine | Ka (association constant, ITC) [2]: 154000 L/mol |
| C[C@H](Cc1ccc(O)c(O)c1)[C@@H](C)Cc1ccc(O)c(O)c1 [nordihydroguaiaretic acid] | 77.20 ± 4.84% | 6.47 μmol/μmol AChE and 6.47 ± 0.41 μmol/μmol AChE | 17.3 µM | 57.80 × 10^3 L/mol | 37.3 ± 1.2 nmol/L of Eserine | IC50 (AChE [6]): 46.2 µM |
| O=C(O)c1ccc(O)c(O)c1 [protocatechuic acid] | 77.15 ± 5.16% | 6.50 ± 0.43 μmol/μmol AChE | 17.4 µM | 57.63 × 10^3 L/mol | – | IC50 (ITC) ([1]; listed as Protocatechic acid): 6.50 μmol/μmol AChE |
| O=C(O)c1ccccc1O [salicylic acid] | 82.30 ± 4.77% | 6.07 ± 0.35 μmol/μmol AChE | 19.4 µM | 51.55 × 10^3 L/mol | 11.8 ± 0.4 nmol/L of Eserine | IC50 (ITC) ([1]; listed as Salicylic acid): 6.07 μmol/μmol AChE |
| COc1cc(C(=O)O)cc(OC)c1O [syringic acid] | 71.80 ± 3.12% | 6.96 ± 0.30 μmol/μmol AChE | 5.46 µM | 183.15 × 10^3 L/mol | 5.4 ± 0.1 nmol/L of Eserine | IC50 (ITC) ([1]; listed as Syringic acid): 6.96 μmol/μmol AChE; IC50 (AChE [7]): 18.73 µg/mL (≈ 94.5 µM); Ka (association constant, ITC) [2]: 180000 L/mol |
| COc1cc(C(=O)O)ccc1O [vanillic acid] | 73.70 ± 1.90% | 6.79 μmol/μmol AChE and 6.79 ± 0.18 μmol/μmol AChE | 19.1 µM | 52.36 × 10^3 L/mol | 3.2 ± 0.0 nmol/L of Eserine | AChE activity in mice (AChE [8]): reduced |
| COc1cc(C=O)ccc1O [vanillin] | – | – | – | – | – | IC50 (AChE [9]): 37 µM |

From PMC9227119, “Hydroxybenzoic Acids as Acetylcholinesterase Inhibitors: Calorimetric and Docking Simulation Studies” (Nutrients, 2022)
